Measured values taken from patent publication EP0153858A2, “The therapeutic use of prostaglandins” (THE UPJOHN COMPANY, priority 1984, dated 1985).

Columns and labels:
[1] = tested on: trauma; settings: reported experimentally; cited from earlier work
[2] = tested on: endotoxin-induced lung injury; settings: infusion of the prostaglandin; cited from earlier work
[3] = tested on: microvascular permeability; settings: sheep; cited from earlier work
[4] = tested on: patients suffering from ARDS; assay: Prospective randomized double blind placebo controlled study of PGE1 infusion in ARDS patients (Example 1); type: in vivo, human; settings: 30 days after discontinuing the infusion; i.v. 5 ng/kg/min increased to 30 ng/kg/min, for 7 days or until extubated; 21 patients
Description: An intravenous solution was prepared by mixing one 5 ml ampoule of Prostin VR Pediatric Sterile Solution containing 2.5 mg PGE1 active drug with one liter of D5W or Normal Saline. Dosages of this solution or of a control solution containing only vehicle but no PGE1 were administered to 41 patients suffering from ARDS in a prospective randomized double blind placebo controlled study. PGE1 or the control solution was started at a dose of 5 ng/kg/min and then increased 5 ng/kg/min every 30 minutes until a rate of 30 ng/kg/min was reached.
This dosage was continued for 7 days or until the patient was extubated, whichever came sooner. The survival rate 30 days after discontinuing the infusion was as follows: […]

[5] = tested on: patients with ARDS; assay: Double blind randomized study of PGE1 versus placebo in ARDS patients; survival, and mortality by creatinine/bilirubin level (Example 2); type: in vivo, human; settings: 30 ng/kg/min for 7 days; 17 out of 26 patients survived
Description: Fifty patients with ARDS were randomized to receive PGE1 (30 ng/kg/min for 7 days) or placebo (equivalent volumes of saline and time) in a double blind study. For entry, patients must have required mechanical ventilation with an inspired oxygen concentration of 40% or more and a positive end respiratory pressure of 5 em of water or more. Most of the patients (70%) were septic. 17 out of 26 patients who had received PGE1 survived (65% survival) while only 7 out of 24 patients who had received placebo survived (29% survival).
The relation between the bilirubin and creatinine levels and the mortality of the patients enrolled in this study is depicted in Table 2. […] Creatinine and bilirubin levels are indicative of kidney and liver function, respectively. The data thus indicate that PGE1 prevents severe kidney and liver damage, and greatly decreases the risk of death, for patients highly susceptible to kidney failure, liver failure, and/or death as a result of trauma, sepsis, shock, and similar catastrophic events.

[6] = tested on: beagles suffering from hemorrhagic shock; settings: infusion; cited from earlier work
[7] = tested on: patients with severe postoperative ARDS; settings: cited from earlier work

| SMILES | survival rate after trauma [1] | lung and systemic injury associated with endotoxin infusion [2] | increase of microvascular permeability [3] | Survival Rate (%) [4] | survival [5] | survival rate [6] | lung function of each patient ([7]; 5 patients with severe postoperative ARDS) | patients died of associated problems, including vital organ failure ([7]; of 5 patients with severe postoperative ARDS) |
| --- | --- | --- | --- | --- | --- | --- | --- | --- |
| CCCCC[C@H](O)/C=C/[C@@H]1[C@H]2C/C(=C/CCCC(=O)O)O[C@H]2C[C@H]1O [PGI2, prostacyclin] | beneficial in increasing the survival rate | decreased | – | – | – | – | – | – |
| CCCCC[C@H](O)/C=C/[C@H]1[C@H](O)CC(=O)[C@@H]1CCCCCCC(=O)O [PGE1, Prostaglandin E1] | – | decreased | Reversal | 71.4% | 65% | improved | improved | three |
